Data: ChEMBL document CHEMBL1158172, “Preparation and antibacterial activity of cyclic 2',3'-carbamate derivatives of azithromycin” (Eur J Med Chem, 2008)
The source made the active and inactive calls. No cut-off for these calls is given here.

Columns and labels:
[1] = tested on: Staphylococcus aureus; test: Antibacterial activity against Staphylococcus aureus ATCC 25923; format: functional, organism-based
[2] = tested on: Escherichia coli; test: Antibacterial activity against Escherichia coli ATCC 25922; format: functional, organism-based

| SMILES | Activity [1] | Activity [2] |
| --- | --- | --- |
| CC[C@H]1OC(=O)[C@H](C)[C@@H](O[C@H]2C[C@@](C)(OC)[C@@H](O)[C@H](C)O2)[C@H](C)[C@@H](O[C@@H]2O[C@H](C)C[C@H]3[C@H]2OC(=O)N3C)[C@](C)(O)C[C@@H](C)CN[C@H](C)[C@@H]2OC(=O)O[C@]12C | inactive | inactive |
| CC[C@H]1OC(=O)[C@H](C)[C@@H](O[C@H]2C[C@@](C)(OC)[C@@H](O)[C@H](C)O2)[C@H](C)[C@@H](O[C@@H]2O[C@H](C)C[C@H]3[C@H]2OC(=O)N3C)[C@](C)(O)C[C@@H](C)CN(C)[C@H](C)[C@@H]2OC(=O)O[C@]12C | inactive | inactive |
